PubChem BioAssay (NCI)
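1) Cells in 96-well plates. 2) Compound, 48 h, 5 concentrations. 3) Linear interpolation between surrounding doses. 4) Unreached endpoint = highest concentration. At the GI50, growth is halved. TGI: concentration producing complete growth inhibition.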

What was measured:
Experiment in all cases: NCI tumour cell line growth inhibition, 48 h
[1] = system: 786-0 renal
[2] = system: A498 renal
[3] = system: A549 NSCLC
[4] = system: ACHN renal
[5] = system: BT-549 breast
[6] = system: CAKI-1 renal
[7] = system: CCRF-CEM leukemia
[8] = system: COLO 205 colon
[9] = system: DU-145 prostate
[10] = system: EKVX NSCLC
[11] = system: HCC-2998 colon
[12] = system: HCT-116 colon
[13] = system: HCT-15 colon
[14] = system: HL-60(TB) leukemia
[15] = system: HOP-62 NSCLC
[16] = system: HOP-92 NSCLC
[17] = system: HS 578T breast
[18] = system: HT29 colon
[19] = system: IGROV1 ovarian
[20] = system: K-562 leukemia
[21] = system: KM12 colon
[22] = system: LOX IMVI melanoma
[23] = system: M14 melanoma
[24] = system: MALME-3M melanoma
[25] = system: MCF7 breast
[26] = system: MDA-MB-231 breast
[27] = system: MDA-MB-435
[28] = system: MDA-MB-468 breast
[29] = system: MOLT-4 leukemia
[30] = system: NCI-H226 lung
[31] = system: NCI-H23 lung
[32] = system: NCI-H460 lung
[33] = system: NCI-H522 lung
[34] = system: NCI/ADR-RES ovarian
[35] = system: OVCAR-3 ovarian
[36] = system: OVCAR-4 ovarian
[37] = system: OVCAR-5 ovarian
[38] = system: OVCAR-8 ovarian
[39] = system: PC-3 prostate
[40] = system: RPMI-8226 leukemia
[41] = system: RXF 393 renal
[42] = system: SF-268 CNS
[43] = system: SF-295 CNS
[44] = system: SF-539 CNS
[45] = system: SK-MEL-2 melanoma
[46] = system: SK-MEL-28 melanoma
[47] = system: SK-MEL-5 melanoma
[48] = system: SK-OV-3 ovarian
[49] = system: SN12C renal
[50] = system: SNB-19 CNS
[51] = system: SNB-75 CNS
[52] = system: SR leukemia
[53] = system: SW-620 colon
[54] = system: T-47D breast
[55] = system: TK-10 renal
[56] = system: U251 CNS
[57] = system: UACC-257 melanoma
[58] = system: UACC-62 melanoma
[59] = system: UO-31 renal

CN1CCN(c2ccc3c(c2)nc(NNC(=O)c2ncccn2)c2cccn23)CC1
GI50 [1]: 0.795 µM
TGI [1]: 2.11 µM
GI50 [2]: 1.72 µM
TGI [2]: 3.32 µM
GI50 [3]: 1.7 µM
TGI [3]: 11.3 µM
GI50 [4]: 0.712 µM
TGI [4]: 6.01 µM
GI50 [5]: 0.856 µM
TGI [5]: 2.82 µM
GI50 [6]: 0.782 µM
TGI [6]: 7.62 µM
GI50 [7]: 0.224 µM
TGI [7]: 2.1 µM
GI50 [8]: 0.476 µM
TGI [8]: 1.72 µM
GI50 [9]: 1.25 µM
TGI [9]: 11 µM
GI50 [10]: 0.529 µM
TGI [10]: 3.96 µM
GI50 [11]: 0.706 µM
TGI [11]: 3 µM
GI50 [12]: 0.347 µM
TGI [12]: 2.61 µM
GI50 [13]: 0.762 µM
TGI [13]: 5.25 µM
GI50 [14]: 0.556 µM
TGI [14]: 4.82 µM
GI50 [15]: 0.453 µM
TGI [15]: 3.2 µM
GI50 [16]: 0.482 µM
TGI [16]: 2.46 µM
GI50 [17]: 3.01 µM
TGI [17]: 34.5 µM
GI50 [18]: 0.628 µM
TGI [18]: 2.34 µM
GI50 [19]: 1.67 µM
TGI [19]: 11 µM
GI50 [20]: 1.88 µM
TGI [20]: > 32.4 µM
GI50 [21]: 0.63 µM
TGI [21]: 12.8 µM
GI50 [22]: 0.383 µM
TGI [22]: 2.64 µM
GI50 [23]: 0.611 µM
TGI [23]: 3 µM
GI50 [24]: 1.38 µM
TGI [24]: 4.29 µM
GI50 [25]: 1.98 µM
TGI [25]: 9.75 µM
GI50 [26]: 0.902 µM
TGI [26]: 3.99 µM
GI50 [27]: 1.78 µM
TGI [27]: 13.5 µM
GI50 [28]: 0.408 µM
TGI [28]: 1.82 µM
GI50 [29]: 0.435 µM
TGI [29]: 15.6 µM
GI50 [30]: 0.929 µM
TGI [30]: 2.63 µM
GI50 [31]: 1.89 µM
TGI [31]: 10.1 µM
GI50 [32]: 1.22 µM
TGI [32]: 10.5 µM
GI50 [33]: 0.927 µM
TGI [33]: 5.31 µM
GI50 [34]: 2.57 µM
TGI [34]: 9.44 µM
GI50 [35]: 0.704 µM
TGI [35]: 4.42 µM
GI50 [36]: 0.725 µM
TGI [36]: 4.1 µM
GI50 [37]: 1.37 µM
TGI [37]: 5.8 µM
GI50 [38]: 0.655 µM
TGI [38]: 2.38 µM
GI50 [39]: 0.344 µM
TGI [39]: 4.12 µM
GI50 [40]: 2.98 µM
TGI [40]: 13.3 µM
GI50 [41]: 1.43 µM
TGI [41]: 3.99 µM
GI50 [42]: 0.594 µM
TGI [42]: 11.9 µM
GI50 [43]: 0.622 µM
TGI [43]: 2.96 µM
GI50 [44]: 1.09 µM
TGI [44]: 4.2 µM
GI50 [45]: 1.28 µM
TGI [45]: 4.21 µM
GI50 [46]: 0.849 µM
TGI [46]: 9.03 µM
GI50 [47]: 1.16 µM
TGI [47]: 3.17 µM
GI50 [48]: 0.459 µM
TGI [48]: 1.83 µM
GI50 [49]: 1.39 µM
TGI [49]: 10.8 µM
GI50 [50]: 0.966 µM
TGI [50]: 12.5 µM
GI50 [51]: 0.61 µM
TGI [51]: 11.4 µM
GI50 [52]: 0.433 µM
TGI [52]: 11.6 µM
GI50 [53]: 0.855 µM
TGI [53]: 3.83 µM
GI50 [54]: 1.66 µM
TGI [54]: 5.78 µM
GI50 [55]: 0.489 µM
TGI [55]: 3.05 µM
GI50 [56]: 0.514 µM
TGI [56]: 3.94 µM
GI50 [57]: 2.28 µM
TGI [57]: 6.25 µM
GI50 [58]: 0.828 µM
TGI [58]: 3.45 µM
GI50 [59]: 0.677 µM
TGI [59]: 4.07 µM

CCOP(=O)(OCC)O[C@H]1CC[C@]2(C)[C@H]3CC[C@@H]4[C@@H]([C@](C)(O)CCC=C(C)C)CC[C@@]4(C)[C@]3(C)CC[C@H]2C1(C)C
GI50 [1]: 11.9 µM
TGI [1]: 28.3 µM
GI50 [2]: 12.4 µM
TGI [2]: 25.1 µM
GI50 [3]: 12.6 µM
TGI [3]: 30.3 µM
GI50 [4]: 12.5 µM
TGI [4]: 25 µM
GI50 [5]: 14.9 µM
TGI [5]: 29.1 µM
GI50 [6]: 10.3 µM
TGI [6]: 22.8 µM
GI50 [7]: 11.5 µM
TGI [7]: 29.3 µM
GI50 [8]: 12.4 µM
TGI [8]: 29.5 µM
GI50 [9]: 14.8 µM
TGI [9]: 30.4 µM
GI50 [10]: 10.1 µM
TGI [10]: 21.6 µM
GI50 [11]: 13.4 µM
TGI [11]: 26 µM
GI50 [12]: 5.91 µM
TGI [12]: 21.7 µM
GI50 [13]: 10.7 µM
TGI [13]: 22.4 µM
GI50 [14]: 8.49 µM
TGI [14]: 33.2 µM
GI50 [15]: 14.1 µM
TGI [15]: 29.5 µM
GI50 [16]: 10.3 µM
TGI [16]: 23.4 µM
GI50 [17]: 11.5 µM
TGI [17]: 31.8 µM
GI50 [18]: 7.35 µM
TGI [18]: 23.2 µM
GI50 [19]: 13.8 µM
TGI [19]: 27.5 µM
GI50 [20]: 6.99 µM
TGI [20]: 98.8 µM
GI50 [21]: 15.4 µM
TGI [21]: 33.2 µM
GI50 [22]: 12.7 µM
TGI [22]: 25.2 µM
GI50 [23]: 14.9 µM
TGI [23]: 35 µM
GI50 [24]: 11.7 µM
TGI [24]: 24 µM
GI50 [25]: 7.26 µM
TGI [25]: 20.5 µM
GI50 [26]: 11.5 µM
TGI [26]: 23.7 µM
GI50 [27]: 12.8 µM
TGI [27]: 27.1 µM
GI50 [28]: 5.1 µM
TGI [28]: 18.2 µM
GI50 [29]: 8.07 µM
TGI [29]: 29.1 µM
GI50 [30]: 11.8 µM
TGI [30]: 25.3 µM
GI50 [31]: 10.1 µM
TGI [31]: 21.7 µM
GI50 [32]: 12.9 µM
TGI [32]: 27.6 µM
GI50 [33]: 11.5 µM
TGI [33]: 25.9 µM
GI50 [34]: 14.7 µM
TGI [34]: 28.5 µM
GI50 [35]: 13.5 µM
TGI [35]: 27.2 µM
GI50 [36]: 13.4 µM
TGI [36]: 32 µM
GI50 [37]: 12.7 µM
TGI [37]: 25.2 µM
GI50 [38]: 13.2 µM
TGI [38]: 30.8 µM
GI50 [39]: 3.45 µM
TGI [39]: 17 µM
GI50 [40]: 3.02 µM
TGI [40]: 17.5 µM
GI50 [41]: 6.45 µM
TGI [41]: 19.5 µM
GI50 [42]: 12.7 µM
TGI [42]: 30.9 µM
GI50 [43]: 12.4 µM
TGI [43]: 24.8 µM
GI50 [44]: 13.2 µM
TGI [44]: 25.8 µM
GI50 [45]: 13.2 µM
TGI [45]: 26.9 µM
GI50 [46]: 12.9 µM
TGI [46]: 25.8 µM
GI50 [47]: 10.4 µM
TGI [47]: 22.2 µM
GI50 [48]: 12.3 µM
TGI [48]: 27 µM
GI50 [49]: 11.8 µM
TGI [49]: 24 µM
GI50 [50]: 13.4 µM
TGI [50]: 26.1 µM
GI50 [51]: 7.02 µM
TGI [51]: 22.4 µM
GI50 [52]: 3.12 µM
TGI [52]: 98.8 µM
GI50 [53]: 13.2 µM
TGI [53]: 27.4 µM
GI50 [54]: 7.62 µM
TGI [54]: 25.2 µM
GI50 [55]: 13.5 µM
TGI [55]: 27.7 µM
GI50 [56]: 11.8 µM
TGI [56]: 28.4 µM
GI50 [57]: 12.4 µM
TGI [57]: 27.3 µM
GI50 [58]: 10.7 µM
TGI [58]: 22.6 µM
GI50 [59]: 10.1 µM
TGI [59]: 21.6 µM
